The source of these data is paper PMC6212833 (mBio, 2018).

Where a name gives a salt, the structure may show the parent alone. Read-outs that look alike come from different tables or passages of the source.

For experiment [1], the system named is B. mandrillaris trophozoites. Put plainly: Nitroxoline structure-activity relationship dose response (CellTiter Glo). Format: cell-based, Balamuthia mandrillaris. The conditions noted are these: for IC50: 72 h; for activity against B. mandrillaris: SAR experiments.
For experiment [2], the system named is B. mandrillaris trophozoites. The experiment in a line: microbe, parasite or virus in culture. Particulars: for inhibition at 20 µM: Balamuthia mandrillaris; for % Inhibition: 20 µM. Format: cell-based, Balamuthia mandrillaris.
The subject of experiment [3] is B. mandrillaris trophozoites. Put plainly: Secondary screening dose response, B. mandrillaris trophozoites. Format: cell-based, Balamuthia mandrillaris. Particulars: 72 h, read-out: B. mandrillaris IC50.
Description: (§1) Secondary screening of hit compounds consisted of dose-response experiments to measure the toxicity of each compound to B. mandrillaris trophozoites, HFF-1 human fibroblast cells, and H4 human neuroglioma cells. Four 384-well plates were prepared prior to addition of drug as follows: one opaque plate (Corning) seeded with 3,000 HFF-1 cells per well in 60 µl complete media, one opaque plate seeded with 2,000 H4 cells per well in 60 µl complete media, one opaque plate containing 30 µl axenic media, and one clear plate (Corning) containing 30 µl axenic media. Opaque plates were used to measure the viability of trophozoites in the CTG assay, and clear plates were used for microscopic examination of cyst formation. HFF-1 and H4 plates were seeded 24 h prior to drug addition. The selected primary screen hits were added from 10 mM DMSO stocks into wells of all four test plates to reach final concentrations ranging from 0.06 µM to 30 µM (10 concentrations, 2-fold serial dilution). Negative-control wells received concentrations of DMSO corresponding to the amount of DMSO in each tested drug well (reaching a maximum of 0.3% DMSO). B. mandrillaris trophozoites were resuspended in axenic media and added to the plates containing drug dilutions in axenic media at a density of 3,000 amoebae per well in a final volume of 60 µl media. All plates were incubated for 72 h. Throughout the incubation period, the clear-bottom B. mandrillaris plate was monitored for large-scale changes to population encystment in response to drug treatment. After the 72-h incubation, 30 µl of CTG reagent was added to all wells of the opaque assay plates and luminescence was measured with a Promega GloMax-Multi+ plate reader at 2, 4, and 8 h after CTG addition.
Experiment [4] has as its system H4 human neuroglioma cells. Put plainly: Secondary screening dose response, toxicity to H4 cells. Type of experiment: cell-based. The conditions noted are these: 72 h, approximated from dose-response curves.
Experiment [5] concerns HFF-1 human fibroblast cells. The experiment in a line: Secondary screening dose response, toxicity to HFF-1 cells. Format: cell-based. The conditions noted are these: 72 h, approximated from dose-response curves, read-out: HFF1 IC50.
Description: as §1
Another experiment deals with B. mandrillaris. Further details: method as in PMID 15347743, PMID 23869955, PMID 16579814. The conditions noted are these: in vitro; cited from earlier work.
The mark [6] stands for this setting: 8-point dose response in triplicate, read-out: IC50.
The mark [7] stands for this setting: 72 h, relative to positive and negative controls.
The mark [8] stands for this setting: Balamuthia mandrillaris, 8-point dose response in triplicate, read-out: IC50.
Where [9] appears, read: Balamuthia mandrillaris, 8-point dose response in triplicate.

By IC50 is commonly meant the concentration at which inhibition is half-maximal. In the case of 6-Nitroquinolone [compound 15], in experiment [1] (setting [6]), the IC50 amounted to 189 µM.

As usually defined, the inhibition is the share of the control response that was lost under treatment. Lower therefore signals a weak effect. Regarding `C[n+]1c2cc(N)ccc2cc2ccc(N)cc21` [Acriflavinium Hydrochloride], 20 µM produced 33% inhibition in experiment [2] (72 h).

On to `CCCCC(CC)CNC(=N)NC(=N)NCCCCCCNC(=N)NC(=N)NCC(CC)CCCC` (stereo not shown) [Alexidine Hydrochloride], for which at 20 µM the inhibition in experiment [2] (72 h) was 79%.

Regarding `CC(C)c1c(C(=O)Nc2ccccc2)c(-c2ccccc2)c(-c2ccc(F)cc2)n1CC[C@@H](O)C[C@@H](O)CC(=O)O` [Atorvastatin], in experiment [2] (72 h), the inhibition at 20 µM was 40%. The IC50 in experiment [3] (Balamuthia mandrillaris) was over 30 µM; in experiment [4] (Homo sapiens), over 30 µM; in experiment [5] (Homo sapiens, HFF-1), over 30 µM.

On to `CO/N=C(\C(=O)N[C@@H]1C(=O)N2C(C(=O)O)=C(COC(N)=O)CS[C@H]12)c1ccco1` [Cefuroxime Sodium], for which the inhibition at 20 µM in experiment [2] (72 h) worked out at 41%.

Take `COCc1c(C(C)C)nc(C(C)C)c(/C=C/[C@@H](O)C[C@@H](O)CC(=O)O)c1-c1ccc(F)cc1` [Cerivastatin, Cerivastatin Na, Cerivastatin]: the inhibition at 20 µM in experiment [2] (72 h) is 66%. Besides, the IC50 in experiment [3] (Balamuthia mandrillaris) is 9 µM; in experiment [4] (Homo sapiens), 0.2 µM; in experiment [5] (Homo sapiens, HFF-1), under 0.06 µM.

Turning to `CCCCCCCCCCCCCCCC[N+](C)(C)C` [Cetrimonium], the inhibition at 20 µM in experiment [2] (72 h) amounted to 56%.

The compound `[H]/N=C(\N/C(=N/[H])NCCCCCCNC(=N)NC(=N)Nc1ccc(Cl)cc1)Nc1ccc(Cl)cc1` [Chlorhexidine] showed an inhibition at 20 µM in experiment [2] (72 h) of 64%.

For the compound `Cc1cc(N)c2ccccc2[n+]1CCCCCCCCCC[n+]1c(C)cc(N)c2ccccc21` [Dequadin], the inhibition at 20 µM in experiment [2] (72 h) came to 69%.

In turn, `Oc1ccc(Cl)cc1Cc1cc(Cl)ccc1O` [Dichlorophene, Dichlorophen, Dichlorophene] registered an inhibition at 20 µM in experiment [2] (72 h) of 42%.

Take `N=C(N)c1ccc(/N=N/Nc2ccc(C(=N)N)cc2)cc1` [Diminazene]: in experiment [2] (72 h), 20 µM produced 46% inhibition.

As for `O=C(O)c1ccccc1-c1c2cc(I)c(=O)c(I)c-2oc2c(I)c(O)c(I)cc12` [Erythrosine Sodium], in experiment [2] (72 h), testing at 20 µM gave an inhibition of 66%.

As a reminder, the % Inhibition is the relative decrease from the control value, in per cent. `C[CH2][Hg][S]c1ccccc1C(=O)O` [Ethylmercurithiosalicylic acid]: the “% Inhibition” value in experiment [2] (setting [7]) was determined as 107%.

As to `Cc1cc(-c2ccc(/N=N/c3ccc4c(S(=O)(=O)O)cc(S(=O)(=O)O)c(N)c4c3O)c(C)c2)ccc1/N=N/c1ccc2c(S(=O)(=O)O)cc(S(=O)(=O)O)c(N)c2c1O` [Evans Blue], testing at 20 µM in experiment [2] (72 h) gave an inhibition of 74%.

With `C=C1C[C@@H]2[C@H](CC[C@]3(C)C(=O)CC[C@@H]23)[C@@]2(C)C=CC(=O)C=C12` [Exemestane], the inhibition at 20 µM in experiment [2] (72 h) stood at 47%. The IC50 is over 30 µM in experiment [3] (Balamuthia mandrillaris); over 30 µM in experiment [4] (Homo sapiens); over 30 µM in experiment [5] (Homo sapiens, HFF-1).

In the case of `CN(C)c1ccc(C(=C2C=CC(=[N+](C)C)C=C2)c2ccc(N(C)C)cc2)cc1` [Gentian Violet], in experiment [2] (72 h), 20 µM produced 62% inhibition.

`CC[n+]1c(-c2ccccc2)c2cc(N)ccc2c2ccc(N)cc21` [Homidium Bromide]: at 20 µM the inhibition in experiment [2] (72 h) was 44%.

As for `NC(=O)NO` [Hydroxyurea], the “% Inhibition” value in experiment [2] worked out at 44%.

Take `CN(C)CCCN1c2ccccc2CCc2ccccc21` [Imipramine]: in experiment [2] (72 h), the inhibition at 20 µM is 42%. In addition, the IC50 in experiment [3] (Balamuthia mandrillaris) is over 30 µM; in experiment [4] (Homo sapiens), over 30 µM; in experiment [5] (Homo sapiens, HFF-1) it was over 30 µM.

In turn, `CC#C[C@]1(O)CC[C@H]2[C@@H]3CCC4=CC(=O)CCC4=C3[C@@H](c3ccc(N(C)C)cc3)C[C@@]21C` [Mifepristone] registered an inhibition at 20 µM in experiment [2] (72 h) of 43%. Moreover, the concentration for half-maximal inhibition (IC50) in experiment [3] (Balamuthia mandrillaris) was over 30 µM; in experiment [4] (Homo sapiens) it was over 30 µM; in experiment [5] (Homo sapiens, HFF-1), over 30 µM.

In experiment [2] (72 h), `NC(=O)c1ccc[n+]([C@@H]2O[C@H](COP(=O)([O-])OP(=O)(O)OC[C@H]3O[C@@H](n4cnc5c(N)ncnc54)[C@H](O)[C@@H]3O)[C@@H](O)[C@H]2O)c1` [Nadide] gave an inhibition at 20 µM of 87%.

In turn, `Cc1c(NC(=O)c2cccnc2)c(=O)n(-c2ccccc2)n1C` [Nifenazone] had an inhibition at 20 µM in experiment [2] (72 h) of 70%. For the same compound, the IC50 in experiment [3] (Balamuthia mandrillaris) is over 30 µM; in experiment [4] (Homo sapiens) it was over 30 µM; in experiment [5] (Homo sapiens, HFF-1), over 30 µM.

Consider `CC(=O)[O][Hg][c]1ccccc1` [Phenylmercuric Acetate], for which the “% Inhibition” value in experiment [2] (setting [7]) is recorded as 107%.

`CNC(=C[N+](=O)[O-])NCCSCc1ccc(CN(C)C)o1` [Ranitidine] displayed an inhibition at 20 µM in experiment [2] (72 h) of 68%. Moreover, the IC50 in experiment [3] (Balamuthia mandrillaris) was over 30 µM; in experiment [4] (Homo sapiens) it was over 30 µM; in experiment [5] (Homo sapiens, HFF-1), over 30 µM.

With `Oc1cccc2cccnc12` [compound 2, 8-Hydroxyquinoline], in experiment [1] (setting [8]), the IC50 was found to be 30.5 µM.

For the compound `O=[N+]([O-])c1cccc2ncccc12` [compound 3, 5-Nitroquinoline], the half-inhibitory concentration (IC50) in experiment [1] (setting [8]) came out at 82.7 µM.

`Oc1ccc(Br)c2cccnc12` [compound 6, 5-Bromo-8-hydroxyquinoline]: in experiment [1] (setting [8]), the IC50 was 48.9 µM.

Turning to `Cc1ccc(O)c2ncccc12` [compound 7, 5-Methylquinolin-8-ol], in experiment [1] (setting [8]), the IC50 was 19.9 µM.

On to `O=S(=O)(O)c1ccc(O)c2ncccc12` [compound 13, 8-Hydroxy-5-quinolinesulfonic acid], for which the IC50 in experiment [1] (8-point dose response in triplicate, listed as 8-Hydroxy-5-quinolinesulfonic acid [13]) was 338 µM; in experiment [1] (setting [9]) it was 338 µM. Also, the “activity against B. mandrillaris” value in experiment [1] is “inactive”.

On to `c1cnc2c(c1)ccc1cccnc12` [compound 14, 1,10-Phenanthroline], for which the IC50 in experiment [1] (setting [9]) worked out at 15.9 µM. In addition, the “activity against B. mandrillaris” value in experiment [1] is reported as “demonstrated activity against B. mandrillaris”.

Turning to `[O-][n+]1cccc2cccc(O)c21` [compound 16, 8-Quinolinol N-oxide], the IC50 in experiment [1] (setting [6]) worked out at 165 µM.

Consider `CCOc1ccc([N+](=O)[O-])c2cccnc12` [compound 17, 8-Ethoxy-5-nitroquinoline], for which the IC50 in experiment [1] (setting [6]) turned out to be 434 µM.

In turn, `O=C(O)c1ccc2ccccc2n1` [compound 18, 2-Quinolinecarboxylic acid] came in with an IC50 in experiment [1] (Balamuthia mandrillaris) of 884 µM.

On to `O=[N+]([O-])c1cnc2ccccc2c1O` [compound 19, 3-Nitro-4-quinolinol], for which, in experiment [1] (setting [9]), the half-maximal inhibitory concentration (IC50) amounted to 1320 µM.

Take `OC(Cn1cncn1)(Cn1cncn1)c1ccc(F)cc1F` [fluconazole]: the “inhibition of amoebic growth” value with B. mandrillaris is on record as “little to no inhibition”.

As for `Nc1[nH]c(=O)ncc1F` [flucytosine], in the experiment on B. mandrillaris, the “inhibition of amoebic growth” value is reported as “little to no inhibition”.

Take `Nc1ccc(S(=O)(=O)Nc2ncccn2)cc1` [sulfadiazine]: the “inhibition of amoebic growth” value in the experiment on B. mandrillaris was “little to no inhibition”.

Regarding `C[C@@H](c1ncncc1F)[C@](O)(Cn1cncn1)c1ccc(F)cc1F` [voriconazole], in the experiment on B. mandrillaris, the “inhibition of amoebic growth” value is on record as “amoebicidal or amoebistatic activity”.

With Demecarium Bromide, the “% Inhibition” value in experiment [2] (setting [7]) is 60%.

Regarding Plicamycin, the “% Inhibition” value in experiment [2] is on record as 45%. Besides, the figures for the IC50 in experiment [3] (approximated from dose-response curves), in experiment [4] and in experiment [5] were over 30 µM, under 0.06 µM and under 0.06 µM, respectively.
